Numbers after ± are expanded uncertainties.
Conditions: 298.15 K; 101.33 kPa; Liquid

Row | mass density [kg/m3] | Compound
1 | 866.84 ± 0.62 | C=C1CC[C@H]2C[C@@H]1C2(C)C [(1S,5S)-6,6-dimethyl-2-methylenebicyclo[3.1.1]heptane]
2 | 745.41 ± 0.78 | CCCCCCCCCCCC [dodecane]
3 | 853.88 ± 0.63 | CC1=CC[C@H]2C[C@@H]1C2(C)C [(S)-2-pinene]

The remaining lines, values behind:

Row | Compound | mass density [kg/m3]
4 | C=C(C)[C@H]1CC=C(C)CC1 [(R)-1-methyl-4-(1-methylethenyl)cyclohexene] | 837.31 ± 1.3
5 | Cc1ccccc1 [toluene] | 862.35 ± 0.24
6 | CO [methanol] | 786.62 ± 0.31

Reference: the NIST ThermoML archive (doi:10.1021/je0502391)
